Experimental findings from ChEMBL document CHEMBL4477163, “Rubiaceae-Type Cyclopeptides from Galianthe thalictroides” (2016) are described below.

In general, GI50 refers to the concentration that inhibits growth by half. The term T/C denotes the ratio of treated to control.

In brackets after ≈: the same amount, converted by molar mass.

Type in all cases: functional
The subject of assay [1] is 786-0. As to the kind of experiment: Cytotoxicity against human 786-0 cells by sulforhodamine B assay.
Assay [2] relates to HT-29. Kind of assay: Cytotoxicity against human HT-29 cells by sulforhodamine B assay.
The test system of assay [3] is PC-3. Kind of assay: Cytotoxicity against human PC3 cells by sulforhodamine B assay.
The test system of assay [4] is P388. Kind of assay: Cytotoxicity against mouse P388 cells at 1 mg/ml relative to control.

In the case of `COc1ccc(C[C@H]2C(=O)N[C@@H](C)C(=O)N(C)[C@@H]3C(=O)N(C)[C@@H](Cc4ccc(OC)c(c4)Oc4ccc(cc4)[C@@H]3O)C(=O)N[C@H](C)C(=O)N[C@@H](CO)C(=O)N2C)cc1`, the figures for the GI50 in assay [1], in assay [2] and in assay [3] were 1.14 µg/mL (≈ 1.42 µM), 1.8 µg/mL (≈ 2.24 µM) and 0.26 µg/mL (≈ 0.324 µM), respectively.
Compound `COc1ccc(C[C@H]2C(=O)N[C@@H](C)C(=O)N(C)[C@@H]3C(=O)N(C)[C@@H](Cc4ccc(OC)c(c4)Oc4ccc(cc4)[C@@H]3O)C(=O)N[C@H](C)C(=O)N[C@@H](C)C(=O)N2C)cc1` showed a T/C in assay [4] of 134%. Further, the figures for the GI50 in assay [1], in assay [2] and in assay [3] were 0.07 µg/mL (≈ 0.089 µM), 0.07 µg/mL (≈ 0.089 µM) and 0.06 µg/mL (≈ 0.0763 µM), respectively.
In the case of `COc1cccc2c1C(=O)c1c(O)c3c(c(O)c1C2=O)C[C@@](O)(C(=O)CO)C[C@@H]3O[C@H]1C[C@H](N)[C@H](O)[C@H](C)O1` [DOXORUBICIN], the values for the GI50 in assay [1], in assay [2] and in assay [3] were 0.02 µg/mL (≈ 0.0368 µM), 0.27 µg/mL (≈ 0.497 µM) and 0.35 µg/mL (≈ 0.644 µM), respectively.
